{"source": "patent US4593017A", "about": "“Methods of treating patients using a pharmaceutical preparation containing an α-endorfine fragment” (Akzo N.V., priority 1982, dated 1986)", "key": {"[1]": {"conditions": "pole-jumping test; delaying extinction of conditioned avoidance behavior; Pharmac. Ther. 16, 67, 1982; cited from earlier work"}, "rats": {"system": "rats", "assay": "Apomorphine induced stereotyped sniffing", "type": "in vivo", "conditions": "for (Stereotyped) sniffing: after 1 h apomorphine 250 μg/kg s.c., tested 20 min later, measured for 4 min", "protocol": "Subcutaneous treatment of rats with apomorphine (250 μg/kg) elicits hyperlocomotion and especially stereotyped sniffing behavoir. Increase of this stereotyped sniffing by pretreatment with the drug to be tested in considered to be an indication for dopaminergic activity.\nGroups of rats were subcutaneously injected with placebo (0.5 ml saline), (2-9)-α-endorfine (50 μg) or (3-9)-α-endorfine (50 μg) and after 1 h. with apomorphine (250 μg/kg). An additional group of rats received two placebo (0.5 ml saline) injections. Twenty minutes after the last injection the rats were tested in a small open field and the duration of stereotyped sniffing was measured for 4 min."}, "[2]": {"system": "AVP (arg-vasopressin) levels of eye plexus plasma", "assay": "Vasopressin release: AVP levels of eye plexus plasma (RIA)", "type": "in vivo, Female Wistar rats", "conditions": "10 μg per rat subcutaneously", "protocol": "The effect of (2-9)-α-endorfine on AVP (arg-vasopressin) levels of eye plexus plasma was tested.\nFemale Wistar rats (140-160 g) were anaesthetized with ether for a strictly controlled period of 45 seconds. Samples of eye plexus blood were taken and stored in cooled plastic tubes to which heparin was added. The tubes were centrifuged at 4° C. in order to obtain the plasma. The immunoreactive AVP was directly measured in 20 μl of eye plexus plasma with the aid of RIA (radio-immuno-assay) methods.\nThe rats were treated with placebo or with 10 μg of (2-9)-α-endorfine per rat, injected subcutaneously."}}, "note": "Where a SMILES comes first, the peptide text is derived from it.", "data": [{"smiles": "CSCC[C@H](NC(=O)[C@H](Cc1ccccc1)NC(=O)CNC(=O)CN)C(=O)N[C@H](C(=O)N[C@@H](CO)C(=O)N[C@@H](CCC(=O)O)C(=O)N[C@@H](CCCCN)C(=O)O)[C@@H](C)O", "note": "[(2-9)-α-endorfine, H-Gly-Gly-L-Phe-L-Met-L-Thr-L-Ser-L-Glu-L-Lys-OH] (H-GGFMTSEK-OH)", "values": [{"measurement": "times less active than α-endorfine", "setting": "[1]", "result": 10, "unit": "times"}, {"measurement": "(Stereotyped) sniffing", "setting": "rats; pretreatment 50 μg s.c.", "result": 158.0, "unit": "s"}, {"measurement": "potentiation of apomorphine-induced stereotyped sniffing", "setting": "rats; pretreatment 50 μg, apomorphine 250 μg/kg s.c.", "result": "potentiated"}, {"measurement": "AVP levels", "setting": "[2]; 2 minutes after injection", "result": 667, "unit": "pg/mL"}, {"measurement": "AVP levels", "setting": "[2]; 5 minutes after injection", "result": 92, "unit": "pg/mL"}, {"measurement": "AVP levels", "setting": "[2]; 10 minutes after injection", "result": 78, "unit": "pg/mL"}]}, {"smiles": "CN1CCc2cccc3c2[C@H]1Cc1ccc(O)c(O)c1-3", "note": "[apomorphine, reference compound]", "values": [{"measurement": "(Stereotyped) sniffing", "setting": "rats; placebo (0.5 ml saline) pretreatment", "result": 121.4, "unit": "s"}]}]}
